{"source": "patent US20130259882A1", "about": "“Conjugate of Folate and Antibody Preparation Method and Use Thereof” (priority 2010, published 2013)", "key": {"[1]": {"system": "rats with rheumatoid arthritis", "experiment": "Complete Freund adjuvant induced rheumatoid arthritis model", "assay_type": "in vivo, Wistar rat", "settings": "Diclofenac sodium 10 mg/kg orally", "procedure": "Rat IgG and complete Freund adjuvant are from Sigma. Diclofenac sodium enteric-coated tablets are from Beijing Novartis Pharma Ltd. RF detection kit is from Nanjing JianCheng Bioengineering Institute. • 2. Animal: 50 healthy and mature Wistar rat, both male and female, body weight 150˜200 g are provided by Wuhan University Laboratory Animal Center, China.\nDiclofenac sodium positive control group were given 10 mg/kg Diclofenac sodium orally. Normal control group and model group were Intra-peritoneally injected equal amount of saline. The injections were performed once per day. After measurement of right foot volume on day 0, 0.1 ml complete Freund adjuvant was subcutaneously injected into right ankle. On day 21, the right foot volume was measured after the last injection. Rats were sacrificed with ether inhalation after taking blood samples. The blood samples were centrifuged to get serum for the detection of rheumatoid factor (RF).\nRheumatoid factors RF: 100 μl serum were used with RF detection kit."}, "[2]": {"system": "folate receptor transfected MCF-7 cells", "experiment": "Breast cancer model: folate receptor transfected MCF-7 cells injected subcutaneously in mice, tumor volume and mean survival time", "assay_type": "in vivo, nude mice", "procedure": "Animal: 50 healthy and mature female nude mice, body weight 18-22 g are provided by Nanjing University Model Animal Center.\nBy weight, the mice were randomly divided into normal control group, model group, Epirubicin positive control group, FIG 5 mg/kg group and 40 mg/kg group, FGIG 5 mg/kg group and 40 mg/kg group. 7 days before the beginning of the experiment, the mice were maintained with feed without folic acid. From day 0, model group, epirubicin positive control group, FIG 5 mg/kg group or 40 mg/kg group and FGIG 5 mg/kg group or 40 mg/kg group were subcutaneously injected with folate receptor transfected MCF-7 cells (1×10^6) each. From day 5, FIG 5 mg/kg group and FIG 40 mg/kg group were intra-peritoneally injected with FIG 5 mg/kg and 40 mg/kg, respectively). FGIG 5 mg/kg group and FGIG 40 mg/kg group were intra-peritoneally injected with FGIG (5 mg/kg and 40 mg/kg, respectively). Epirubicin positive control group were intra-peritoneally injected with Epirubicin (200 mg/kg). Normal control group and model group were intra-peritoneally injected equal amount of saline. The injections were performed once time every four days. 15 days after injection, the mice were fasting. The next day after treatment, tumor volume was measured with vernier caliper and mean survival time was also calculated.\nVolume: solid tumor volume was calculated using the following formula: V=0.5×L×W×H."}, "[3]": {"system": "mice with inflammatory bowel disease", "experiment": "Acetic acid induced colitis (inflammatory bowel disease model)", "assay_type": "in vivo, Kunming mice", "settings": "Mesalazine 600 mg/kg orally", "procedure": "Mesalazine SR Granules are from Ethypharm (France). MPO detection kit is from Nanjing Jian-Cheng Bioengineering Institute. • 2. Animal: 50 healthy and mature male Kunming mice, body weight 18-22 g are provided by Nanjing University model animal center.\nMesalazine positive control group were given 600 mg/kg Mesalazine orally. Control group and model groups were i.p. injected with equal amount of saline. The injections were performed once per day.\nAcetic acid stimulation was used to induce colitis. The mice were fasting on day 9, and on day 10, were anaesthetized with ether inhalation. Before injection, the intestinal was cleaned, with a polyethylene pipe containing 0.1 ml 6% acetic acid inserted about 1.5 cm into the anus.\nColon macroscopic damage index (CMDI): The entire colon was taken and scissored along the mesenteric. The adhesion, ulcer and congestion were scored by naked eye observation according to the Table 7. • 2. Myeloperoxidase (MPO): The tissues were weighted and homogenized (1:19, weight/volume) in Tris buffer. After homogenization and repeated freezing and thawing, the tissues were made to 5% homogenate. MPO detection was performed according to kit manufacturer's instructions and the protein level was detected using the Lowry method."}}, "note": "Marks after values point to notes of the source that are not given here."}
{"compound": "O=C(O)Cc1ccccc1Nc1c(Cl)cccc1Cl", "note": "[Diclofenac sodium]", "values": [{"measurement": "Joint injury score", "setting": "[1]; day 21", "value": "0.6 ± 0.22"}, {"measurement": "RF", "setting": "[1]; rheumatoid factor in serum", "value": "15.2 ± 1.99", "unit": "pg/mL"}, {"measurement": "Toe volume difference", "setting": "[1]; right foot, day 21 vs day 0", "value": "0.090 ± 0.052", "unit": "mL"}]}
{"compound": "COc1cccc2c1C(=O)c1c(O)c3c(c(O)c1C2=O)C[C@@](O)(C(=O)CO)C[C@@H]3O[C@H]1C[C@H](N)[C@@H](O)[C@H](C)O1", "note": "[Epirubicin]", "values": [{"measurement": "Mean survival time (days)", "setting": "[2]; Epirubicin 200 mg/kg i.p.", "value": "9 ^▴▴ days"}, {"measurement": "Volume of tumor (cm^3)", "setting": "[2]; Epirubicin 200 mg/kg i.p. every four days, day 16", "value": "6.18 ± 1.34 ^▴▴ cm^3"}]}
{"compound": "Nc1ccc(O)c(C(=O)O)c1", "note": "[Mesalazine]", "values": [{"measurement": "Colon coefficient (g/100 g)", "setting": "[3]", "value": "1.21 ± 0.13", "unit": "g/100 g"}, {"measurement": "MPO (U/mg · pro.)", "setting": "[3]; colon tissue", "value": "2.42 ± 0.11", "unit": "U/mg · pro."}, {"measurement": "Inflammation rating level", "setting": "[3]; score per Table 7", "value": "1.9 ± 0.5"}]}
